Experimental data published in patent US20260232851A1, “METHODS FOR THE DETECTION AND DIAGNOSIS OF CANCERS ASSOCIATED WITH OVEREXPRESSION OF PSMA RECEPTOR” (CLARITY PHARMACEUTICALS LIMITED, priority 2023, published 2026).
Entries after “also recorded” stand apart in the source; their conditions may differ.

Biological target: T1, PSMA receptor (Homo sapiens, UniProt Q04609)
T1 construct: localises at sites that overexpress the PSMA receptor and are indicative of a cancer; from tissue; host or cells: Primary prostate cancer and metastatic lesions (lymph node, bone, prostatic bed) in living patients
Assay: PET/CT lesion intensity (SUVmax, SUVmean, TTBR) in patients with untreated primary prostate cancer
Format: in vivo
Conditions: for SUVmax Median Difference / SUVmean Median Difference / TTBR Median Difference: ^64Cu vs ^68Ga; for Tumor to background ratio compared between ^64Cu-Sar-bisPSMA and ^68Ga-PSMA-11 (words): concordant lesions, FIG. 6; for Tumor to background ratio compared between ^64Cu-Sar-bisPSMA and ^68Ga-PSMA-11 (words) / SUVmean of lesions compared between ^64Cu-Sar-bisPSMA and ^68Ga-PSMA-11 (words) / SUVmax of lesions compared between ^64Cu-Sar-bisPSMA and ^68Ga-PSMA-11 (words): two readers; for SUVmean of lesions compared between ^64Cu-Sar-bisPSMA and ^68Ga-PSMA-11 (words) / SUVmax of lesions compared between ^64Cu-Sar-bisPSMA and ^68Ga-PSMA-11 (words): same subjects; for SUVmean of lesions compared between ^64Cu-Sar-bisPSMA and ^68Ga-PSMA-11 (words): FIG. 5; for SUVmax of lesions compared between ^64Cu-Sar-bisPSMA and ^68Ga-PSMA-11 (words): FIGS. 2, 4
Procedure: Patients with untreated, histopathology-proven, intermediate- to high-risk PC, planned for radical prostatectomy underwent ^68Ga-PSMA-11 PET/CT per institutional practice and were subsequently allocated to 1 out of 3 dose cohorts (1:1:3) to receive either 100 MBq, 150 MBq or 200 MBq of ^64Cu-SAR-bisPSMA, respectively. The specified dose of ^64Cu-Sar-bisPSMA was administered to each patient as a single bolus IV injection. […] PET/CT scans at other times after injection of the compound were acquired as required.
Patients were scanned using the standard clinical whole-body PET/CT acquisition protocol defined for each clinical site and in accordance with the Image Acquisition Manual, which contains details of scan acquisition, processing parameters and quality assurance procedures. The same scanner was used for each visit. Typical imaging acquisition parameters are below:
Two independent, blinded, central readers assessed the detection of primary PC on the 200 MBq ^64Cu-SAR-bisPSMA PET/CTs as the primary endpoint. To compare the intensity of lesions on ^68Ga-PSMA-11 and ^64Cu-SAR-bisPSMA PET, both readers determined the SUVs (SUVmax, SUVmean) and tumour-to-background ratio (ratio of lesion SUVmax and background SUVmean) in up to 5 concordant lesions between ^68Ga-PSMA-11 and ^64Cu-SAR-bisPSMA PET/CT as an exploratory endpoint.
Tables 1 and 2 below compare SUV parameters obtained from PET/CT images after administration of ^68Ga-PSMA-11 and a dose of 200 MBq of ^64Cu-SAR-bisPSMA from each reader.
Tables 3 and 4 below compare SUV parameters obtained from PET/CT images after administration of ^68Ga-PSMA-11 (200 MBq) and ^64Cu-SAR-bisPSMA (200 MBq) from each reader.

[1] = Table 1, first reader, 200 MBq ^64Cu-SAR-bisPSMA, N=17
[2] = Table 2, second reader, 200 MBq ^64Cu-SAR-bisPSMA, N=13

T1 sequence (Q04609 whole entry): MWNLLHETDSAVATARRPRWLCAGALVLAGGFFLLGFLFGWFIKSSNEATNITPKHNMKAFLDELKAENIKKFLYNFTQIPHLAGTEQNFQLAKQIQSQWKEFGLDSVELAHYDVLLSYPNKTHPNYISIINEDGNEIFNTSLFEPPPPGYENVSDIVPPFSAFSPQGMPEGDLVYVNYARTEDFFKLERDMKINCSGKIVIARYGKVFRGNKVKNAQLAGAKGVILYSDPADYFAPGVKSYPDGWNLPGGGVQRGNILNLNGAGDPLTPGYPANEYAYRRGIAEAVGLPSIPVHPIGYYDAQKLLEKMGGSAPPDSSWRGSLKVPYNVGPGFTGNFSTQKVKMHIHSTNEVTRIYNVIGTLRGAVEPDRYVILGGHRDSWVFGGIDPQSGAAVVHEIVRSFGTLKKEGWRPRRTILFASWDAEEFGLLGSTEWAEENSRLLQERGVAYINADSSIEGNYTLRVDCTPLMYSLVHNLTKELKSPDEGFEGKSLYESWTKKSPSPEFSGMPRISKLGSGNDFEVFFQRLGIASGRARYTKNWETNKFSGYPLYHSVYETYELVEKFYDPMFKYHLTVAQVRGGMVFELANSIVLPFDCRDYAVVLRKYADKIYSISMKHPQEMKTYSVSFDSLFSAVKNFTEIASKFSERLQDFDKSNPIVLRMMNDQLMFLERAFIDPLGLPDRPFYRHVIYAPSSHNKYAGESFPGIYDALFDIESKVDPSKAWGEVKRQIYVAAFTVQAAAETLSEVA

Substance: Sar-bisPSMA [^64Cu-SAR-bisPSMA]
- SUVmax Max [1]: 100
- SUVmax Median [1]: 31.40
- SUVmax Min [1]: 8
- SUVmean Max [1]: 69.9
- SUVmean Mean [1]: 27.25
- SUVmean Median [1]: 21.76
- SUVmean Min [1]: 5.5
- TTBR (Tumour-to-Background Ratio) Mean [1]: 77.25
- TTBR Max [1]: 227.3
- TTBR Median [1]: 49.07
- TTBR Min [1]: 10.3
- SUVmax Median Difference (Table 1, first reader, N=17): 14.85
- SUVmean Median Difference (Table 1, first reader, N=17): 9.64
- TTBR Median Difference (Table 1, first reader, N=17): 27.15
- SUVmax Mean (Table 1, first reader, ^68Ga-PSMA-11 vs 200 MBq ^64Cu-SAR-bisPSMA PET/CT, concordant lesions averaged per participant, N=17): 40.28
- SUVmax Max [2]: 100
- SUVmax Median [2]: 41.00
- SUVmax Min [2]: 6.1
- SUVmean Max [2]: 69.9
- SUVmean Mean [2]: 31.78
- SUVmean Median [2]: 28.07
- SUVmean Min [2]: 4.4
- TTBR (Tumour-to-Background Ratio) Mean [2]: 86.40
- TTBR Max [2]: 212.8
- TTBR Median [2]: 76.34
- TTBR Min [2]: 6.7
- SUVmax Median Difference (Table 2, second reader, N=13): 27.03
- SUVmean Median Difference (Table 2, second reader, N=13): 18.44
- TTBR Median Difference (Table 2, second reader, N=13): 45.37
- SUVmax Mean (Table 2, second reader, ^68Ga-PSMA-11 vs 200 MBq ^64Cu-SAR-bisPSMA PET/CT, concordant lesions averaged per participant, N=13): 47.37
- SUVmax Max (Table 3, first reader, N=28): 100.00
- SUVmax Median (Table 3, first reader, N=28): 30.26
- SUVmax Min (Table 3, first reader, N=28): 8.00
- SUVmean Max (Table 3, first reader, N=28): 69.90
- SUVmean Mean (Table 3, first reader, N=28): 27.41
- SUVmean Median (Table 3, first reader, N=28): 21.20
- SUVmean Min (Table 3, first reader, N=28): 5.40
- TTBR (Tumour-to-Background Ratio) Mean (Table 3, first reader, N=28): 83.38
- TTBR Max (Table 3, first reader, N=28): 294.10
- TTBR Median (Table 3, first reader, N=28): 53.55
- TTBR Min (Table 3, first reader, N=28): 10.30
- SUVmax Median Difference (Table 3, first reader, N=28): 14.23
- SUVmean Median Difference (Table 3, first reader, N=28): 9.26
- TTBR Median Difference (Table 3, first reader, N=28): 27.94
- SUVmax Mean (Table 3, first reader, ^68Ga-PSMA-11 (200 MBq) vs ^64Cu-SAR-bisPSMA (200 MBq) PET/CT, lesions averaged per participant, N=28): 41.66
- SUVmax Max (Table 4, second reader, N=16): 100
- SUVmax Median (Table 4, second reader, N=16): 41.66
- SUVmax Min (Table 4, second reader, N=16): 6.1
- SUVmean Max (Table 4, second reader, N=16): 69.9
- SUVmean Mean (Table 4, second reader, N=16): 33.24
- SUVmean Median (Table 4, second reader, N=16): 28.4
- SUVmean Min (Table 4, second reader, N=16): 4.4
- TTBR (Tumour-to-Background Ratio) Mean (Table 4, second reader, N=16): 93.86
- TTBR Max (Table 4, second reader, N=16): 243.9
- TTBR Median (Table 4, second reader, N=16): 78.37
- TTBR Min (Table 4, second reader, N=16): 6.7
- SUVmax Median Difference (Table 4, second reader, N=16): 27.99
- SUVmean Median Difference (Table 4, second reader, N=16): 18.78
- TTBR Median Difference (Table 4, second reader, N=16): 46.93
- SUVmax Mean (Table 4, second reader, ^68Ga-PSMA-11 (200 MBq) vs ^64Cu-SAR-bisPSMA (200 MBq) PET/CT, lesions averaged per participant, N=16): 49.73
- Tumor to background ratio compared between ^64Cu-Sar-bisPSMA and ^68Ga-PSMA-11 (words) (listed as 64Cu-Sar-bisPSMA): higher
- Tumor to background ratio compared between ^64Cu-Sar-bisPSMA and ^68Ga-PSMA-11 (words) (listed as 64Cu-SarbisPSMA): higher tumour to background ratio
- SUVmean of lesions compared between ^64Cu-Sar-bisPSMA and ^68Ga-PSMA-11 (words): consistently higher
- SUVmean of lesions compared between ^64Cu-Sar-bisPSMA and ^68Ga-PSMA-11 (words) (listed as 64Cu-Sar-bis-PSMA): higher SUVmean
- SUVmean of lesions compared between ^64Cu-Sar-bisPSMA and ^68Ga-PSMA-11 (words) (listed as 64Cu-Sar-bisPSMA): greater
- SUVmax of lesions compared between ^64Cu-Sar-bisPSMA and ^68Ga-PSMA-11 (words): consistently higher
- SUVmax of lesions compared between ^64Cu-Sar-bisPSMA and ^68Ga-PSMA-11 (words) (listed as 64Cu-Sar-bisPSMA): higher SUVmax; also recorded: greater
- SUVmax of lesions compared between ^64Cu-Sar-bisPSMA and ^68Ga-PSMA-11 (words) (listed as 64Cu-SarbisPSMA): higher SUVmax
